# Measured values from ChEMBL document CHEMBL1806384, “Identification of benzofuran-4,5-diones as novel and selective non-hydroxamic acid, non-peptidomimetic based inhibitors of human peptide deformylase” (Bioorg Med Chem Lett, 2011).
# How the values were obtained:
# Jurkat = experiment: Cytotoxicity against human Jurkat cells; format: functional, cell-based
# [1] = Cytotoxicity against human CWR22 cells; format: functional, cell-based
# [2] = biological target: T1, Interstitial collagenase (Homo sapiens) (UniProt P03956); experiment: Inhibition of human recombinant MMP1 at 100 uM after 1 hr by fluorescence polarization based competition assay
# T1 sequence (whole entry): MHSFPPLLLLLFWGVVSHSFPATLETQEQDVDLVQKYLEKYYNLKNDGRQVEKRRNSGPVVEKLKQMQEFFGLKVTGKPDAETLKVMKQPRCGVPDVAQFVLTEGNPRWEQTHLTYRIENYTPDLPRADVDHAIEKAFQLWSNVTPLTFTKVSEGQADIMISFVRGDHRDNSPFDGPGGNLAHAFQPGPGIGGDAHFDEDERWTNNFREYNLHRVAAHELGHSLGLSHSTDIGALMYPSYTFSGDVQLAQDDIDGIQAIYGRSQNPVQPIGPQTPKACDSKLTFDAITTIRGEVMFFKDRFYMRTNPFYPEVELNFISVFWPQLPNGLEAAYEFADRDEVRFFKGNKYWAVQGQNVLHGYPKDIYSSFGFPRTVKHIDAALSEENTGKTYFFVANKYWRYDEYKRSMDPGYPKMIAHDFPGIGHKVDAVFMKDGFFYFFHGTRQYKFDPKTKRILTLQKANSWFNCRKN
# [3] = Cytotoxicity against human ALL3 cells; format: functional, cell-based
# MOLT-3 = experiment: Cytotoxicity against human MOLT3 cells; format: functional, cell-based
# [4] = biological target: T2, Peptide deformylase (Escherichia coli) (UniProt Q9JN24); experiment: Inhibition of Escherichia coli peptide deformylase at 100 uM after 1 hr by fluorescence polarization based competition assay
# T2 sequence (whole entry): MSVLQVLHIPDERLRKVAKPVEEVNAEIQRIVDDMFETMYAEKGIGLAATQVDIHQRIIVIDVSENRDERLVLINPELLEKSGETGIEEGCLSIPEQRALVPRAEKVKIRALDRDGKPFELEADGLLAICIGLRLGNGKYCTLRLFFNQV
# [5] = Cytotoxicity against human Meso47 cells; format: functional, cell-based
# Peptide deformylase = biological target: T3, Peptide deformylase (Escherichia coli, UniProt Q9JN24); experiment: Inhibition of Escherichia coli peptide deformylase after 1 hr by fluorescence polarization based competition assay
# T3 sequence (Q9JN24 whole entry): T2 sequence (whole entry)
# [6] = biological target: T4, Peptide deformylase, mitochondrial (Homo sapiens) (UniProt Q9HBH1); experiment: Inhibition of human peptide deformylase at 100 uM after 1 hr by fluorescence polarization based competition assay
# T4 sequence (whole entry): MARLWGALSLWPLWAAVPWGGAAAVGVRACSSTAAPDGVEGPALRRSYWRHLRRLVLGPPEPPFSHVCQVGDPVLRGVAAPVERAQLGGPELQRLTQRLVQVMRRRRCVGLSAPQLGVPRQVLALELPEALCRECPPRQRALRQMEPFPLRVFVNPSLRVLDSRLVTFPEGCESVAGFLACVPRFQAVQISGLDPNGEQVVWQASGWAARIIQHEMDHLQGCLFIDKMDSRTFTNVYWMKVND
# [7] = biological target: T5, Aminopeptidase N (Sus scrofa) (UniProt P15145); experiment: Inhibition of porcine kidney microsomal aminopeptidase N at 100 uM after 1 hr by fluorescence polarization based competition assay
# T5 sequence (whole entry): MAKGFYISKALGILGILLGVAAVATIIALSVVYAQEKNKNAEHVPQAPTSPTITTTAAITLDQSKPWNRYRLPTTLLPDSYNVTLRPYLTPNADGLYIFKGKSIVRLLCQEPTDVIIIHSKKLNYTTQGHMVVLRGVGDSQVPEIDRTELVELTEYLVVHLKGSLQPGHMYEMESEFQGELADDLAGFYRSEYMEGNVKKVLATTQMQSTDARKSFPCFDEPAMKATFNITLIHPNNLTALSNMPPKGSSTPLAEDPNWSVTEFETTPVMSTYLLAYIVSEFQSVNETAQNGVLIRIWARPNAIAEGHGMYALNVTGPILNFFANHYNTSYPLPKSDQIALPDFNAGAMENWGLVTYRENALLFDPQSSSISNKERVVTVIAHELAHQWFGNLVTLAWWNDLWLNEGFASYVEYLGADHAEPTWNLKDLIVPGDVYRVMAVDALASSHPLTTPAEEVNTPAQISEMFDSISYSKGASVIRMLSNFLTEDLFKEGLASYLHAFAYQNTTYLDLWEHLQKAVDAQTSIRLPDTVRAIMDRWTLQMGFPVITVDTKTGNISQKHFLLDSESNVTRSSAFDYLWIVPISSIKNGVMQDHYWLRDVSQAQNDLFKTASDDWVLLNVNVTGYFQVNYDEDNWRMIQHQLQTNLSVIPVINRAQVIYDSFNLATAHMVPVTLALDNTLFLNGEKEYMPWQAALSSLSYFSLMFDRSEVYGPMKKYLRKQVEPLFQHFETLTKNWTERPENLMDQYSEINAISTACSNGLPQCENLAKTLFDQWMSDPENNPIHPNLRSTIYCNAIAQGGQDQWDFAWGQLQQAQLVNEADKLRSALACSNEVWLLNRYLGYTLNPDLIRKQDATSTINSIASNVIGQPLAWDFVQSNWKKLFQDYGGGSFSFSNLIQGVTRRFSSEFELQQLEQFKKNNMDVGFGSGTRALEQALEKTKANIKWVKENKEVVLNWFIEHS
# [8] = biological target: T4, Peptide deformylase, mitochondrial (Homo sapiens); experiment: Inhibition of human peptide deformylase at 10 uM after 1 hr by fluorescence polarization based competition assay
# HL-60 [9] = experiment: Cytotoxicity against human HL60 cells; format: functional, cell-based
# HL-60 [10] = experiment: Cytotoxicity against human vincristine-resistant HL60 cells; format: functional, cell-based
# Y79 = experiment: Cytotoxicity against human Y79 cells; format: functional, cell-based
# [11] = biological target: T6, Peptide deformylase, mitochondrial (Homo sapiens, UniProt Q9HBH1); experiment: Inhibition of human peptide deformylase after 1 hr by fluorescence polarization based competition assay
# T6 sequence (Q9HBH1 whole entry): T4 sequence (whole entry)
# HEK293 = experiment: Cytotoxicity against human HEK293 cells; format: cell-based
Compound,inhibition [8] [%],IC50 (Jurkat) [µM],IC50 [1] [µM],inhibition [2] [%],IC50 [3] [µM],IC50 (MOLT-3) [µM],inhibition [4] [%],IC50 [5] [µM],IC50 (Peptide deformylase) [µM],inhibition [6] [%],inhibition [7] [%],IC50 (HL-60 [9]) [µM],IC50 (HL-60 [10]) [µM],IC50 (Y79) [µM],IC50 [11] [µM],IC50 (HEK293) [µM]
O=C1C=Cc2occ(C(=O)c3ccccc3)c2C1=O,,8.1,30,0,22,7.3,32,63,> 100,100,5,,,,,
COc1ccc(C(=O)c2coc3c2C(=O)C(=O)C=C3)cc1,,8.9,35,6,29,9.1,24,100,> 100,100,4,17,27,31,34,21
COc1ccc(C(=O)c2coc3c2C(=O)C(=O)C=C3Br)cc1,,12,46,8,35,11,26,100,> 100,100,64,10,38,63,15,
COc1cc(C(=O)c2coc3c2C(=O)C(=O)C(Cl)=C3Cl)cc(OC)c1OC,,5.9,,32,49,7,27,100,> 100,100,50,36,55,,25,

# Second part, led by results:
inhibition [8] [%],Compound,IC50 (Jurkat) [µM],IC50 [1] [µM],inhibition [2] [%],IC50 [3] [µM],IC50 (MOLT-3) [µM],inhibition [4] [%],IC50 [5] [µM],IC50 (Peptide deformylase) [µM],inhibition [6] [%],inhibition [7] [%],IC50 (HL-60 [9]) [µM],IC50 (HL-60 [10]) [µM],IC50 (Y79) [µM],IC50 [11] [µM],IC50 (HEK293) [µM]
81,Cc1ccc(C(=O)c2coc3c2C(=O)C(=O)C(Br)=C3)cc1,,,,,,,,,,,,,,,
90,COc1ccc(C(=O)c2coc3c2C(=O)C(=O)C(Br)=C3)cc1,20,,26,48,4,5,,> 100,100,22,48,,100,32,54
75,CC(=O)C(C(C)=O)C1=C(Cl)C(=O)C(=O)c2c(C(=O)c3ccc(C)cc3)coc21,,,,,,,,,,,,,,,
97,O=C1C(=O)c2c(C(=O)c3ccccc3)coc2C=C1Br,,,,,,,,,,,,,,,
